# Assay results taken from ChEMBL document CHEMBL5338791, “Discovery of Novel 1,3-Diphenylpyrazine Derivatives as Potent S-Phase Kinase-Associated Protein 2 (Skp2) Inhibitors for the Treatment of Cancer” (J Med Chem, 2023).
# Tests used:
# [1] = biological target: S-phase kinase-associated protein 2/Cyclin-dependent kinases regulatory subunit 1/S-phase kinase-associated protein 1 (Homo sapiens, UniProt Q13309); experiment: Inhibition of GST-tagged Skp2/Skp1 (unknown origin)/His6-tagged Cks1 (unknown origin) interaction preincubated with Skp2/Skp1 for 10 mins followed by Cks1 addition measured after 20 mins by HTRF assay; assay type: protein assay
# Chain of S-phase kinase-associated protein 2/Cyclin-dependent kinases regulatory subunit 1/S-phase kinase-associated protein 1 (P61024 whole entry): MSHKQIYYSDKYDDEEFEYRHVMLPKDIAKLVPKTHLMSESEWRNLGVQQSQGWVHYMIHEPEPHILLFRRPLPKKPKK
# Chain of S-phase kinase-associated protein 2/Cyclin-dependent kinases regulatory subunit 1/S-phase kinase-associated protein 1 (Q13309 whole entry): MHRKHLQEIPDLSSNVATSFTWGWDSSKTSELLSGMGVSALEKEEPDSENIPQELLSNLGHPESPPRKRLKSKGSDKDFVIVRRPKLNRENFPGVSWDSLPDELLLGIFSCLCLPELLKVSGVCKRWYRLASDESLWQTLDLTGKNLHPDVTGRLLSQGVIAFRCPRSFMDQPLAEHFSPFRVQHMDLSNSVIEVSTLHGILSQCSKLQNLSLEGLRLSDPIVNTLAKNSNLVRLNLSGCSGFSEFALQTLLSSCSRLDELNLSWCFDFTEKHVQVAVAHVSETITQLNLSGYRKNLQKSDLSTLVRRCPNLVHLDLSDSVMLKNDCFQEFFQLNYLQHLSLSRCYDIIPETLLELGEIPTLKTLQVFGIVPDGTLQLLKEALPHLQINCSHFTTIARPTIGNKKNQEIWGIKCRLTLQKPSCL
# Chain of S-phase kinase-associated protein 2/Cyclin-dependent kinases regulatory subunit 1/S-phase kinase-associated protein 1 (P63208 whole entry, further chain): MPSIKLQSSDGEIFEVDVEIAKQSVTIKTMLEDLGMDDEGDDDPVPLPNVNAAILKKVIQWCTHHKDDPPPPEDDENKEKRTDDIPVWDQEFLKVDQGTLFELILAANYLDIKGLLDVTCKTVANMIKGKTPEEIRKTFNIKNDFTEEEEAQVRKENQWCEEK
# [2] = tested on: PC-3; experiment: Antitumor activity against human PC-3 cells assessed as cell growth inhibition incubated for 72 hrs by MTT assay; assay type: functional, cell-based; details: PC-3, 72 h
# [3] = Solubility in cell culture medium by HPLC analysis; assay type: physicochemical
# [4] = tested on: MGC-803; experiment: Antitumor activity against human MGC-803 cells assessed as cell growth inhibition incubated for 72 hrs by MTT assay; assay type: functional, cell-based; details: MGC-803, 72 h
# [5] = tested on: MCF7; experiment: Antitumor activity against human MCF7 cells assessed as cell growth inhibition incubated for 72 hrs by MTT assay; assay type: functional, cell-based; details: MCF7, 72 h
# [6] = tested on: NCI-H1299; experiment: Antitumor activity against human NCI-H1299 cells assessed as cell growth inhibition incubated for 72 hrs by MTT assay; assay type: functional, cell-based; details: NCI-H1299, 72 h
# [7] = Antitumor activity against human EC1 cells assessed as cell growth inhibition incubated for 72 hrs by MTT assay; assay type: functional, cell-based; details: EC1, 72 h
SMILES,IC50 [1] [µM],other results
O=C(N1CCOCC1)N1CCN(c2cnc(-c3ccccc3)c(-c3ccccc3)n2)CC1,> 25,
CC(C)(C)C(=O)NCC1CCN(c2cnc(-c3ccccc3)c(-c3ccccc3)n2)CC1,,IC50 [2]: 68 µM; solubility [3]: 0.1 µg/mL; IC50 [4]: > 100 µM; IC50 [5]: 51.8 µM; IC50 [6]: 59 µM; IC50 [7]: 75.6 µM
CC(C)(C)OC(=O)NCC1CCN(c2cnc(-c3ccccc3)c(-c3ccccc3)n2)CC1,2.3,IC50 [2]: 11.7 µM; solubility [3]: 0.51 µg/mL; IC50 [4]: 23.6 µM; IC50 [5]: 18 µM; IC50 [6]: 41.6 µM; IC50 [7]: 45.6 µM
CC(C)(C)C(=O)NCC1CCN(c2cnc(-c3ccc(CO)cc3)c(-c3ccccc3)n2)CC1,,IC50 [2]: > 100 µM; solubility [3]: 0.06 µg/mL; IC50 [4]: > 100 µM; IC50 [5]: > 100 µM; IC50 [6]: 100 µM; IC50 [7]: > 100 µM
CC(C)(C)C(=O)NCC1CCN(c2cnc(-c3ccc(N)cc3)c(-c3ccccc3)n2)CC1,> 25,
CN(CCNC(=O)OC(C)(C)C)c1cnc(-c2ccccc2)c(-c2ccccc2)n1,20.2,
O=C(CCl)NCC1CCN(c2cnc(-c3ccccc3)c(-c3ccccc3)n2)CC1,> 25,
CC1CCN(c2cnc(-c3ccccc3)c(-c3ccccc3)n2)CC1,> 50,
O=C(C1CCCCC1)N1CCN(c2cnc(-c3ccccc3)c(-c3ccccc3)n2)CC1,> 25,
CC(C)(C)C(=O)NCC1CCN(c2cnc(-c3cn[nH]c3)c(-c3ccccc3)n2)CC1,> 25,
COc1cnc(-c2ccccc2)c(-c2ccccc2)n1,> 50,
CC(C)N(CCCCOCC(=O)Nc1ccccc1)c1cnc(-c2ccccc2)c(-c2ccccc2)n1,> 50,
Cc1ccc(S(=O)(=O)NC2CCN(c3cnc(-c4ccccc4)c(-c4ccccc4)n3)CC2)cc1,> 25,
CC(C)(C)OC(=O)NC1CCN(c2cnc(-c3ccccc3)c(-c3ccccc3)n2)C1 (configuration not stated),> 25,
CC(C)(C)C(=O)NCC1CCN(c2cnc(-c3cncnc3)c(-c3ccccc3)n2)CC1,> 25,
c1ccc(-c2ncc(NCCN3CCOCC3)nc2-c2ccccc2)cc1,> 50,
O=C(NCC1CCN(c2cnc(-c3ccccc3)c(-c3ccccc3)n2)CC1)C1CC1,3.3,
CCS(=O)(=O)NC1CCN(c2cnc(-c3ccccc3)c(-c3ccccc3)n2)CC1,> 25,
O=C(CBr)NCC1CCN(c2cnc(-c3ccccc3)c(-c3ccccc3)n2)CC1,> 25,
CC(C)(C)C(=O)NCC1CCN(c2cnc(Br)c(-c3ccccc3)n2)CC1,> 25,
CC(C)(C)OC(=O)N1CCCN(c2cnc(-c3ccccc3)c(-c3ccccc3)n2)CC1,24.5,

SMILES,IC50 [1] [µM],other results
O=C(CCCl)N1CCN(c2cnc(-c3ccccc3)c(-c3ccccc3)n2)CC1,> 25,
c1ccc(-c2ncc(NC3CCCCC3)nc2-c2ccccc2)cc1,> 50,
CC(C)N(CCCCOCC(=O)Nc1nccs1)c1cnc(-c2ccccc2)c(-c2ccccc2)n1,> 50,
c1ccc(-c2ncc(N3CCOCC3)nc2-c2ccccc2)cc1,> 50,
O=C(CCl)N1CCN(c2cnc(-c3ccccc3)c(-c3ccccc3)n2)CC1,9.9,
CC1CN(c2cnc(-c3ccccc3)c(-c3ccccc3)n2)CCN1C(=O)OC(C)(C)C (configuration not stated),> 25,
CNc1cnc(-c2ccccc2)c(-c2ccccc2)n1,> 50,
CC(C)(C)C(=O)NCC1CCN(c2cnc(-c3cccc(CO)c3)c(-c3ccccc3)n2)CC1,> 25,
CC(C)N(C)c1cnc(-c2ccccc2)c(-c2ccccc2)n1,> 50,
CCC(=O)NCC1CCN(c2cnc(-c3ccccc3)c(-c3ccccc3)n2)CC1,2.8,IC50 [2]: 22.1 µM; solubility [3]: 0.57 µg/mL; IC50 [4]: 43.9 µM; IC50 [5]: 58.1 µM; IC50 [6]: 68.3 µM; IC50 [7]: 52.6 µM
CN(C)CCNc1cnc(-c2ccccc2)c(-c2ccccc2)n1,> 50,
CC(C)Nc1cnc(-c2ccccc2)c(-c2ccccc2)n1,> 50,
O=C(c1cccs1)N1CCN(c2cnc(-c3ccccc3)c(-c3ccccc3)n2)CC1,> 25,
O=C(c1ccccc1)N1CCN(c2cnc(-c3ccccc3)c(-c3ccccc3)n2)CC1,17.7,
CC(C)(C)OC(=O)NC1CCCN(c2cnc(-c3ccccc3)c(-c3ccccc3)n2)C1 (configuration not stated),> 25,
CC(C)(C)C(=O)NCC1CCN(c2cnc(C3CCCCC3)c(-c3ccccc3)n2)CC1,> 25,
CN1CCN(c2cnc(-c3ccccc3)c(-c3ccccc3)n2)CC1,> 50,
O=C(CBr)N1CCN(c2cnc(-c3ccccc3)c(-c3ccccc3)n2)CC1,> 25,
O=C(NCC1CCN(c2cnc(-c3ccccc3)c(-c3ccccc3)n2)CC1)N1CCOCC1,,IC50 [2]: 28.6 µM; solubility [3]: 0.55 µg/mL; IC50 [4]: 59.3 µM; IC50 [5]: 47.1 µM; IC50 [6]: 30.4 µM; IC50 [7]: 51.8 µM
CS(=O)(=O)NC(=O)COCCCCN(Cc1ccccc1)c1cnc(-c2ccccc2)c(-c2ccccc2)n1,> 50,
CN(C)c1cnc(-c2ccccc2)c(-c2ccccc2)n1,45.4,

SMILES,IC50 [1] [µM],other results
CN(c1cnc(-c2ccccc2)c(-c2ccccc2)n1)C1CCCCC1,> 50,
CC(C)N(CCCCOCC(=O)O)c1cnc(-c2ccccc2)c(-c2ccccc2)n1 [LASELIPAG],> 50,
CC(C)(C)C(=O)NCC1CCN(c2cnc(-c3ccc(C(F)(F)F)cc3)c(-c3ccccc3)n2)CC1,10.9,
O=C(NCC1CCN(c2cnc(-c3ccccc3)c(-c3ccccc3)n2)CC1)C1CCCCC1,8.5,
CS(=O)(=O)NC(=O)COCCCCNc1cnc(-c2ccccc2)c(-c2ccccc2)n1,> 50,
CC(C)(C)C(=O)NCC1CCN(c2cnc(-c3ccco3)c(-c3ccccc3)n2)CC1,8.12,
CN(C)c1ccc(-c2ncc(N3CCC(CNC(=O)C(C)(C)C)CC3)nc2-c2ccccc2)cc1,5.2,
CC(C)(C)C(=O)NC1CCN(c2cnc(-c3ccccc3)c(-c3ccccc3)n2)CC1,10.2,
O=C(NC1CCN(c2cnc(-c3ccccc3)c(-c3ccccc3)n2)CC1)Oc1ccccc1,13.5,
CC(C)(C)C(=O)NCC1CCN(c2cnc(-c3ccccc3CO)c(-c3ccccc3)n2)CC1,> 25,
O=C(NCC1CCN(c2cnc(-c3ccccc3)c(-c3ccccc3)n2)CC1)c1ccccc1,2.4,IC50 [2]: 70.9 µM; solubility [3]: 0.08 µg/mL; IC50 [4]: > 100 µM; IC50 [5]: > 100 µM; IC50 [6]: > 100 µM; IC50 [7]: 81.1 µM
CC(C)(C)OC(=O)NCCCNc1cnc(-c2ccccc2)c(-c2ccccc2)n1,> 25,
CC(C)c1ncc(N2CCC(CNC(=O)C(C)(C)C)CC2)nc1-c1ccccc1,> 25,
CCC(=O)N1CCN(c2cnc(-c3ccccc3)c(-c3ccccc3)n2)CC1,10,
CC(C)(C)OC(=O)NC1CCN(c2cnc(-c3ccccc3)c(-c3ccccc3)n2)CC1,13.7,
CC(C)(C)OC(=O)N1CCN(c2cnc(-c3ccccc3)c(-c3ccccc3)n2)CC1,1.7,IC50 [2]: 96.5 µM; solubility [3]: 0.13 µg/mL; IC50 [4]: 46.9 µM; IC50 [5]: 42.1 µM; IC50 [6]: > 100 µM; IC50 [7]: 52.3 µM
C=CC(=O)N1CCN(c2cnc(-c3ccccc3)c(-c3ccccc3)n2)CC1,> 25,
Clc1cnc(-c2ccccc2)c(-c2ccccc2)n1,> 50,
NC1CCN(c2cnc(-c3ccccc3)c(-c3ccccc3)n2)CC1,25.2,
CC(C)(C)C(=O)N1CCN(c2cnc(-c3ccccc3)c(-c3ccccc3)n2)CC1,13.2,
O=C(NC1CCN(c2cnc(-c3ccccc3)c(-c3ccccc3)n2)CC1)OCc1ccccc1,> 25,

SMILES,IC50 [1] [µM],other results
CN(C(=O)OC(C)(C)C)C1CCN(c2cnc(-c3ccccc3)c(-c3ccccc3)n2)CC1,> 25,
C=CC(=O)NCC1CCN(c2cnc(-c3ccccc3)c(-c3ccccc3)n2)CC1,> 25,
OCC1CCN(c2cnc(-c3ccccc3)c(-c3ccccc3)n2)CC1,> 50,
C=Cc1ncc(N2CCC(CNC(=O)C(C)(C)C)CC2)nc1-c1ccccc1,> 25,
Oc1cnc(-c2ccccc2)c(-c2ccccc2)n1,> 50,
CC(=O)NCC1CCN(c2cnc(-c3ccccc3)c(-c3ccccc3)n2)CC1,12.4,
CC(=O)N1CCN(c2cnc(-c3ccccc3)c(-c3ccccc3)n2)CC1,17.9,
CS(=O)(=O)NC(=O)COCCNc1cnc(-c2ccccc2)c(-c2ccccc2)n1,> 50,
O=C(C1CC1)N1CCN(c2cnc(-c3ccccc3)c(-c3ccccc3)n2)CC1,5.8,
O=C(NCC1CCN(c2cnc(-c3ccccc3)c(-c3ccccc3)n2)CC1)c1cccs1,8.5,
CC(C)N(CCCCOCC(=O)N1CCOCC1)c1cnc(-c2ccccc2)c(-c2ccccc2)n1,52.6,
CN(C)C1CCN(c2cnc(-c3ccccc3)c(-c3ccccc3)n2)CC1,> 50,
O=C(NCC1CCN(c2cnc(-c3ccccc3)c(-c3ccccc3)n2)CC1)C(F)(F)F,15.6,
CN(C)CCN(C)c1cnc(-c2ccccc2)c(-c2ccccc2)n1,> 50,
CC(C)COC(=O)NC1CCN(c2cnc(-c3ccccc3)c(-c3ccccc3)n2)CC1,> 25,
CC(C)(C)C(=O)NCC1CCN(c2cnc(-c3ccncc3)c(-c3ccccc3)n2)CC1,> 25,
O=C(NC1CCN(c2cnc(-c3ccccc3)c(-c3ccccc3)n2)CC1)c1ccccc1,,IC50 [2]: > 100 µM; solubility [3]: 0.1 µg/mL; IC50 [4]: 41.3 µM; IC50 [5]: 25.1 µM; IC50 [6]: > 100 µM; IC50 [7]: > 100 µM
O=C(CCCl)NCC1CCN(c2cnc(-c3ccccc3)c(-c3ccccc3)n2)CC1,13.1,
c1ccc(-c2ncc(N3CCSCC3)nc2-c2ccccc2)cc1,> 50,
Cc1ccc(S(=O)(=O)NC(=O)COCCCCN(c2cnc(-c3ccccc3)c(-c3ccccc3)n2)C(C)C)cc1,> 50,
